Assay results reported in patent EP4711366A1, “PYRIMIDO MACROHETEROCYCLIC COMPOUND AS WEE1-YES DUAL-TARGET INHIBITOR AND USE THEREOF” (Mindrank AI Ltd., priority 2023, dated 2024).

Legend:
[1] = tested on: A427 cells; assay: Tumor cell proliferation inhibitory activity assay (CCK-8); format: cell-based, Human; conditions: for IC50: CCK-8; for activity in inhibiting cancer cell proliferation compared with reference compound Debio 0123 or ZN-c3: comparison in words
Procedure: Human lung cancer A427 cells are cancer cells reported to be sensitive to wee1 inhibitors. In this assay, the anti-cancer effects of the compounds of the present disclosure were verified by assessing the activity of the test substances in inhibiting A427 cell proliferation.
A427 cells were cultured according to the cell culture instructions, and cells in the logarithmic growth phase were collected, counted, resuspended in a complete culture medium, and inoculated into a 96-well plate at a cell concentration of 100 µL/3000 cells/well. The cells were incubated in an incubator at 37 °C with 100% relative humidity and 5% CO2 for 24 h.
The compounds to be tested were dissolved in DMSO and diluted 4-fold with a culture medium from 10 µM to 10 concentration gradients.
The culture medium waste was pipetted off, and 100 µL of the formulated culture medium of the compound to be tested was added to each well. The cells were incubated in an incubator at 37 °C with 100% relative humidity and 5% CO2 for 72 h.
The plate was taken out, the CCK-8 reagent was added at 10 µL/well, and the plate was incubated in an incubator at 37 °C for 2-4 h.
The cell growth inhibition rates of the drugs were calculated using the following formula: Cell growth inhibition rate% = [(Ac−As)/(Ac−Ab)] × 100% [formula] • As: the OA of the samples (cells + CCK-8 + compounds to be tested) • Ac: the OA of the normal growth cell control (cells + CCK-8) • Ab: the OA of the blank control (culture medium + CCK-8)
IC50 curve fitting was performed using the software Graphpad Prism 6 and the calculation formula XY-analysis/Nonlinear regression(curve fit)/Dose response-Inhibition/log(inhibitor)vs. response-Variable slope(four parameters), and the IC50 values were calculated. Table 1. Data analysis and results for some representative compounds

[2] = biological target: YES1 kinase (Homo sapiens, UniProt P07947); assay: YES1 protein kinase inhibitory activity assay (HTRF); format: biochemical; conditions: for IC50: HTRF, YES1 kinase, ATP 10 µM; for inhibition of the Yes target (in words): summary statement on the assay results
Procedure: In this experiment, the capability of the compound MRANK-106 of the present disclosure to inhibit kinase activity was assessed by an HTRF method using a drug screening system based on the YES1 kinase.
Table 3-1. Information about reagents and consumables
The enzymatic activity conditions and HTRF system formulation are shown in Table 3-3; the experimental conditions for the kinase activity assay are shown in Table 3-4. Table 3-3. HTRF system formulation
Table 3-4. The experimental conditions for the kinase activity assay
The test compound MRANK-106 was dissolved in DMSO, and the solution was vortexed and shaken for thorough mixing. The solution was serially diluted 3-fold with DMSO, with the initial concentration being 503 nM.
① A 2× ATP/substrate solution and a 2× kinase solution were formulated using a kinase reaction buffer.
② 50 nL of the compound dilution was transferred to a 384 detection plate using Echo 655. After centrifugation, 2.5 µL of a 2× kinase solution was added to the 384 detection plate. The plate was centrifuged at 1000 rpm for 1 min and incubated at 25 °C for 10 min.
② 2.5 µL of the 2× substrate and ATP solution was added to the 384 detection plate, and the plate was centrifuged at 1000 rpm for 1 min and incubated at 25 °C for 60 min.
④ A 2× XL665 and antibody detection reagent was formulated using a detection buffer.
⑤ 5 µL of a kinase detection reagent was added to the detection plate, and the plate was incubated at 25 °C. The plate was centrifuged at 1000 rpm for 1 min and incubated at 25 °C for 1 h.
⑥ The fluorescence signals at 620 nm (Cryptate) and 665 nm (XL665) were read using a BMG high-throughput drug-screening multi-mode microplate reader.
With the reading of the negative control set as an inhibition rate of 0% and the reading of the positive control set as an inhibition rate of 100%, the inhibition rate of each test solution was calculated using the following formula: [formula] • Datapositive control: the average of the positive control well values • Datanegative control : the average of the negative control well values
The IC50 (half maximal inhibitory concentration) of the compound was obtained using the following nonlinear fitting formulas: Y = Bottom + (Top−Bottom)/(1+10^(∧)((LogIC50−X)*HillSlope)) [formula] • X: the log value of the compound concentration • Y: the inhibition rate (% inh) of the compound
The Z' factor calculation equation: Z′ = 1−3(SDmin+SDmax)/(AVEmax−AVEmin) [formula] where: • Min is the positive control Data value, and Max is the negative control DMSO Data value; • SD stands for standard deviation, and AVE stands for average.

[3] = biological target: Wee1 kinase (Homo sapiens, UniProt P30291); assay: WEE1 protein kinase inhibitory activity assay (ADP-GLO luminescence); format: biochemical; conditions: for IC50: Wee1 10 ng/well, ATP 10 µM, 3 h, 37 °C; for inhibition of the Weel target (in words): summary statement on the assay results
Procedure: The influence of the compound MRANK-106 of the present disclosure on the kinase activity of Weel was assessed using an in vitro kinase reaction system.
Table 2-1. Information about reagents and consumables
① 1× kinase buffer: A 5× kinase buffer was diluted with ddH2O to make a 1× kinase buffer. Table 2-3. The reagent components added to the 1× kinase buffer
③ 5× enzyme working solution: The optimization of the enzyme concentration had been completed in previous work, and the concentration of the reagent used in the screening is shown in Table 2-4. A 5× enzyme working solution of the enzyme was formulated using the 1× kinase buffer.
④ Compound formulation: A 10 mM mother liquor was formulated using DMSO, aliquoted, and then stored at -20 °C. Immediately before use, the mother liquor was thawed, diluted with DMSO to 1 mM, serially diluted 4-fold to 10 concentration points, and then 40-fold diluted with the 1× kinase buffer to give a 2.5× working solution. Table 2-4. The experimental conditions for the kinase activity assay
After the above reagents were formulated and equilibrated to room temperature, 4 µL of the diluted solution of the compound to be tested and 2 µL of the formulated enzyme solution were added to reaction wells. After shaking and centrifugation, the plate was incubated at room temperature for 15 min, and 4 µL of the ATP solution was then added to start a kinase reaction. After 3 h of reaction at 37 °C, 10 µL of an ADP-GLO reagent was added. After thorough mixing, the mixture was left to react at room temperature for 40 min, and 20 µL of a detection reagent was then added. After 30 min of reaction at room temperature, the luminescence signals were detected using a SpectraMax L instrument. Two independent duplicate assays were performed. The inhibition rate of each well was calculated based on all activity wells and background signal wells, with an average calculated for duplicate wells. Meanwhile, the inhibition rate was plotted using the professional graphing and analysis software PRISM 9.0, and the IC50 was calculated.
The inhibition rates of the compounds to be tested against the kinase activity of Wee1 were calculated using the following formula: Inhibition rate% = (Lumvehicle−Lumcompound)/(Lumvehicle−Lumblank) × 100% [formula] • Lumcompound: the luminescence of the sample treatment groups • Lumvehicle: the luminescence of the solvent control group • Lumblank: the luminescence of the blank group

[4] = Homo sapiens, A-427, 72 h compound incubation

Chain of YES1 kinase (P07947 whole entry): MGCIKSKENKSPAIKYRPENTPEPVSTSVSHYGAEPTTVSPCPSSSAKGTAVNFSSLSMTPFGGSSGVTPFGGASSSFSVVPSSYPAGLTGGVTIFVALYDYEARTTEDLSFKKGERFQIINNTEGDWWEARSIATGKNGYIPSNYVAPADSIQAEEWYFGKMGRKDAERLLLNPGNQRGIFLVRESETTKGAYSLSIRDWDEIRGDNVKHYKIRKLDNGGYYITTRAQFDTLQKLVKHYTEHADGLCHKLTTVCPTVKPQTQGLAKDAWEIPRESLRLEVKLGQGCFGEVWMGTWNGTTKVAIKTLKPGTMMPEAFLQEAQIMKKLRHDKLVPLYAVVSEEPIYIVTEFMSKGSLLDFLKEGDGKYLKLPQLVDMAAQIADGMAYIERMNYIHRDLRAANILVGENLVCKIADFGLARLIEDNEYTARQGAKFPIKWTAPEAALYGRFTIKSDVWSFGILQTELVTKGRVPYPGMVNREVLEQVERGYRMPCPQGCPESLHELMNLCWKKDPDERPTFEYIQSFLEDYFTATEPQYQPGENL
Chain of Wee1 kinase (P30291 whole entry): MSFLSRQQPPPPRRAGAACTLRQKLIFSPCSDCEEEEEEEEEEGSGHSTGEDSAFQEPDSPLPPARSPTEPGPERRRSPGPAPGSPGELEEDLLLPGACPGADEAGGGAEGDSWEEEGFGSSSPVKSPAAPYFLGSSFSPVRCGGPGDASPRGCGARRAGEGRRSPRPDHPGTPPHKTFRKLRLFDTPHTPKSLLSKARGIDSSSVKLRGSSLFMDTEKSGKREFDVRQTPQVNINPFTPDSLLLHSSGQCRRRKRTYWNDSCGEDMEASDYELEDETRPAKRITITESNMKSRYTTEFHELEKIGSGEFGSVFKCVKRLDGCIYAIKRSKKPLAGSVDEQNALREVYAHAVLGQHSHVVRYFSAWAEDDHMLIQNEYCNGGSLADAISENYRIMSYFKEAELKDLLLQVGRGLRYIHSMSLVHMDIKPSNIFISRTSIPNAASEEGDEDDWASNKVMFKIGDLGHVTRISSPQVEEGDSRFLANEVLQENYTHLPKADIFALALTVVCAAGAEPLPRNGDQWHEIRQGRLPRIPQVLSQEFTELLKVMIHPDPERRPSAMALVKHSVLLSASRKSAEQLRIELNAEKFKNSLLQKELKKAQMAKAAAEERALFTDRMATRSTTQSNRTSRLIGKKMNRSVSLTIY

Row | SMILES | IC50 [1, 4] [nM] | IC50 [2] [nM] | inhibition of the Yes target (in words) [2] | IC50 [3] [nM] | inhibition of the Weel target (in words) [3] | IC50 ([1]; 72 h compound incubation) [nM] | activity in inhibiting cancer cell proliferation compared with reference compound Debio 0123 or ZN-c3 [1]
1 | COc1cc(Nc2ncc3c(=O)n4n(c3n2)-c2cccc(n2)[C@](C)(O)CCC=CC4)ccc1OC1CCN(C)CC1 [Compound 143, (R,Z)-12-hydroxy-2-((3-methoxy-4-((1-methylpiperidin-4-yl)oxy)phenyl)amino)-12-methyl-7,10,11,12-tetrahydro-5H-13,17-(azeno)pyrimido[4',5':3,4]pyrazolo[1,2-a][1,2]diazacyclotridecin-5-one] | 65 |  |  |  |  |  | several times to several dozen times higher
2 | Cc1cc(Nc2ncc3c(n2)N(C)CN(c2c(Cl)cccc2Cl)C3=O)ccc1C1CCN(C)CC1 [Debio 0123, reference compound] |  |  |  |  |  | 1610 | 
3 | Cc1cc(Nc2ncc3c(=O)n4n(c3n2)-c2cccc(n2)C(C)(O)CCC=CC4)ccc1OC1(C)CCN(C)CC1 (stereo not shown) [Compound 89, (Z)-2-((4-((1,4-dimethylpiperidin-4-yl)oxy)-3-methylphenyl)amino)-12-hydroxy-12-methyl-7,10,11,12-tetrahydro-5H-13,17-(azeno)pyrimido[4',5':3,4]pyrazolo[1,2-a][1,2]diazacyclotridecin-5-one] | 219 | 18.5 | strongly inhibited | 66.8 | strongly inhibited |  | 
4 | CCOP1(=O)CCN(c2ccc(Nc3ncc4c(=O)n5n(c4n3)-c3cccc(n3)C(C)(O)CCC=CC5)cc2C)CC1 (racemic) [Compound 182, (Z)-2-((4-(4-ethoxy-4-oxido-1,4-azaphosphinan-1-yl)-3-methylphenyl)amino)-12-hydroxy-12-methyl-7,10,11,12-tetrahydro-5H-13,17-(azeno)pyrimido[4',5':3,4]pyrazolo[1,2-a][1,2]diazacyclotridecin-5-one] | 160 | 19.9 | strongly inhibited | 30.1 | strongly inhibited |  | 
5 | Cc1cc(Nc2ncc3c(=O)n4n(c3n2)-c2cccc(n2)C(C)(O)CC/C=C\C4)ccc1NC1CCN(C)CC1 (single isomer, unassigned) [Compound 203A] | 71 |  |  | 13.2 |  |  | several times to several dozen times higher
6 | CN1CCN(Cc2ccc(Nc3ncc4c(=O)n5n(c4n3)-c3cccc(n3)C(C)(O)CCC=CC5)cc2)CC1 (stereo not shown) [Compound 214, (Z)-12-hydroxy-12-methyl-2-((4-((4-methylpiperazin-1-yl)methyl)phenyl)amino)-7,10,11,12-tetrahydro-5H-13,17-(azeno)pyrimido[4',5':3,4]pyrazolo[1,2-a][1,2]diazacyclotridecin-5-one] | 144 |  |  |  |  |  | 
7 | Cc1cc(Nc2ncc3c(=O)n4n(c3n2)-c2cccc(n2)[C@](C)(O)CCCCC4)ccc1OC1CCN(C)CC1 [Compound 28, (R)-12-hydroxy-12-methyl-2-((3-methyl-4-((1-methylpiperidin-4-yl)oxy)phenyl)amino)-7,8,9,10,11,12-hexahydro-5H-13,17-(azeno)pyrimido[4',5':3,4]pyrazolo[1,2-a][1,2]diazacyclotridecin-5-one] | 152 |  |  |  |  |  | 

Now from value to molecule, other results behind:

Row | IC50 [1, 4] [nM] | IC50 [2] [nM] | inhibition of the Yes target (in words) [2] | IC50 [3] [nM] | inhibition of the Weel target (in words) [3] | IC50 ([1]; 72 h compound incubation) [nM] | SMILES | activity in inhibiting cancer cell proliferation compared with reference compound Debio 0123 or ZN-c3 [1]
8 | 78 | 18.8 | strongly inhibited | 16.4 | strongly inhibited |  | Cc1cc(Nc2ncc3c(=O)n4n(c3n2)-c2cccc(n2)C(C)(O)CCC=CC4)ccc1OC1CN(C)[C@H]1C (stereo partly drawn) [Compound 202, (Z)-2-((4-(((2S)-1,2-dimethylazetidin-3-yl)oxy)-3-methylphenyl)amino)-12-hydroxy-12-methyl-7,10,11,12-tetrahydro-5H-13,17-(azeno)pyrimido[4',5':3,4]pyrazolo[1,2-a][1,2]diazacyclotridecin-5-one] | several times to several dozen times higher
9 | 163 |  |  |  |  |  | Cc1cc(Nc2ncc3c(=O)n4n(c3n2)-c2cccc(n2)[C@](C)(O)CCC=CC4)ccc1OC1CCN(C2COC2)CC1 [Compound 205, (R,Z)-12-hydroxy-12-methyl-2-((3-methyl-4-((1-(oxetan-3-yl)piperidin-4-yl)oxy)phenyl)amino)-7,10,11,12-tetrahydro-5H-13,17-(azeno)pyrimido[4',5':3,4]pyrazolo[1,2-a][1,2]diazacyclotridecin-5-one] | 
10 | 15 | 5.8 | strongly inhibited | 6.5 | strongly inhibited |  | [2H]C1(Oc2ccc(Nc3ncc4c(=O)n5n(c4n3)-c3cccc(n3)[C@](C)(O)CCC=CC5)cc2C)CCN(C)CC1 (single isomer, unassigned) [Compound 172A] | several times to several dozen times higher
